Measurements: patent US20100239563A1 (priority 2001, published 2010)

Experiments:
[1] = human, in vivo; cited from earlier work
[2] = tested on: influenza A virus strain WSN-HK
[3] = tested on: influenza B virus strain Massachusetts/6/93
[4] = tested on: influenza B viruses/Massachusetts/6/92 (B/Mass)

| SMILES | MTD [1] [mg/m^2/dx3] | reduction of the number of newly formed infectious virus particles [2] | reduction of the number of newly formed infectious virus particles [3] | cytotoxic effect on the cells (MDCK cells) | titer of infectious virus particles over infection sequences [4] |
| --- | --- | --- | --- | --- | --- |
| CN1CC[C@H](c2c(O)cc(O)c3c(=O)cc(-c4ccccc4Cl)oc23)[C@H](O)C1 [flavopiridol] | 50 | – | – | – | – |
| N#CC(=C(N)Sc1ccccc1N)C(C#N)=C(N)Sc1ccccc1N [U0126, 1,4-diamino-2,3-dicyano-1,4-bis(2-aminophenylthio)butadiene] | – | approx. 80% | approx. 90% | neither solvent nor inhibitor have a significant cytotoxic effect | significant reduction of the influenza virus particles |
